In patent publication US20210186020A1, “AGRICULTURAL COMPOSITIONS AND METHODS OF USE THEREOF” (Valent U.S.A. LLC, priority 2019, published 2021):

Experiments:
[1] = system: barnyard grass; assay: Spray-chamber efficacy of S-3100 with or without fertilizer on potted barnyard grass; assay type: in vivo, Echinochloa crus-galli; conditions: barnyard grass 10 inches, S-3100 20 grams/ha, Fertilizer 14 liters/ha, 1% v/v Agridex (combination also 1% v/v Intact)
Description: 4 trials were conducted on the efficacy of ethyl [3-[2-chloro-4-fluoro-5-(1-methyl-6-trifluoromethyl-2,4-dioxo-1,2,3,4-tetrahydropyrimidin-3-yl)phenoxy]-2-pyridyloxy]acetate (“S-3100”) with or without a mannitol and/or sorbitol comprising fertilizer. Specifically, 4 pots of barnyard grass were grown to 10 inches in height. These pots were placed in a spray chamber for treatment. All compositions contained 1% v/v of Agridex®. The composition containing S-3100 and fertilizer contained 1% v/v of Intact™. Treatments and results can be found in Table 1, below.

[2] = system: broadleaf grass; assay: Spray-chamber efficacy of S-3100 with or without fertilizer on potted broadleaf grass; assay type: in vivo; conditions: broadleaf grass 10 inches, S-3100 20 grams/ha, Fertilizer 14 liters/ha, 1% v/v Agridex (combination also 1% v/v Intact)
Description: 4 trials were conducted on the efficacy of ethyl [3-[2-chloro-4-fluoro-5-(1-methyl-6-trifluoromethyl-2,4-dioxo-1,2,3,4-tetrahydropyrimidin-3-yl)phenoxy]-2-pyridyloxy]acetate (“S-3100”) with or without a mannitol and/or sorbitol comprising fertilizer. Specifically, 4 pots of broadleaf grass were grown to 10 inches in height. These pots were placed in a spray chamber for treatment. All compositions contained 1% v/v of Agridex®. The composition containing S-3100 and fertilizer contained 1% v/v of Intact™. Treatments and results can be found in Table 2, below.

[3] = system: giant foxtail; assay: Spray-chamber efficacy of S-3100 with or without fertilizer on potted giant foxtail; assay type: in vivo, Setaria faberi; conditions: giant foxtail 10 inches, S-3100 20 grams/ha, Fertilizer 14 liters/ha, 1% v/v Agridex (combination also 1% v/v Intact)
Description: 4 trials were conducted on the efficacy of ethyl [3-[2-chloro-4-fluoro-5-(1-methyl-6-trifluoromethyl-2,4-dioxo-1,2,3,4-tetrahydropyrimidin-3-yl)phenoxy]-2-pyridyloxy]acetate (“S-3100”) with or without a mannitol and/or sorbitol comprising fertilizer. Specifically, 4 pots of giant foxtail were grown to 10 inches in height. These pots were placed in a spray chamber for treatment. All compositions contained 1% v/v of Agridex®. The composition containing S-3100 and fertilizer contained 1% v/v of Intact™. Treatments and results can be found in Table 3, below.

[4] = system: volunteer corn; assay: Spray-chamber efficacy of S-3100 with or without fertilizer on potted volunteer corn; assay type: in vivo, Zea mays; conditions: volunteer corn 15 inches, S-3100 20 grams/ha, Fertilizer 14 liters/ha, 1% v/v Agridex (combination also 1% v/v Intact)
Description: 4 trials were conducted on the efficacy of ethyl [3-[2-chloro-4-fluoro-5-(1-methyl-6-trifluoromethyl-2,4-dioxo-1,2,3,4-tetrahydropyrimidin-3-yl)phenoxy]-2-pyridyloxy]acetate (“S-3100”) with or without a mannitol and/or sorbitol comprising fertilizer. Specifically, 4 pots of volunteer corn were grown to 15 inches in height. These pots were placed in a spray chamber for treatment. All compositions contained 1% v/v of Agridex®. The composition containing S-3100 and fertilizer contained 1% v/v of Intact™. Treatments and results can be found in Table 4, below.

SMILES: CCOC(=O)COc1ncccc1Oc1cc(-n2c(=O)cc(C(F)(F)F)n(C)c2=O)c(F)cc1Cl [S-3100, ethyl [3-[2-chloro-4-fluoro-5-(1-methyl-6-trifluoromethyl-2,4-dioxo-1,2,3,4-tetrahydropyrimidin-3-yl)phenoxy]-2-pyridyloxy]acetate]
- % control, 3 Days After Treatment ([1]; 3 DAT): 73.3%
- % control, 7 Days After Treatment ([1]; 7 DAT): 85.2%
- % control, 13 Days After Treatment ([1]; 13 DAT): 84.7%
- % control, 3 Days After Treatment ([2]; 3 DAT): 75.0%
- % control, 7 Days After Treatment ([2]; 7 DAT): 93.0%
- % control, 14 Days After Treatment ([2]; 14 DAT): 84.2%
- % control, 3 Days After Treatment ([3]; 3 DAT): 76.7%
- % control, 7 Days After Treatment ([3]; 7 DAT): 95.5%
- % control, 14 Days After Treatment ([3]; 14 DAT): 96.1%
- % control, 3 Days After Treatment ([4]; 3 DAT): 65.0%
- % control, 7 Days After Treatment ([4]; 7 DAT): 59.2%
- % control, 14 Days After Treatment ([4]; 14 DAT): 56.7%
